Assay [1] relates to P. aeruginosa Pa6. Kind of assay: MIC90 by broth microdilution assay. As to conditions: for MIC90: P. aeruginosa Pa6, 37° C., 20 h. The assay is classed as cell-based, Pseudomonas aeruginosa. The method, then:
(§1) ^aMIC90 values (μM) were determined using the broth microdilution method in Mueller-Hinton broth No. 2 (MHII) with visual end point analysis according to the CLSI guidelines (Methods for Dilution Antimicrobial Susceptibility Tests for Bacteria that Grow Aerobically, 8th ed. (Villanova, Pa., USA), Clinical and Laboratory Standards Institute (CLSI), 2009, approved standard document M07-A7). ^bEach compound was tested in triplicate.
(§2) All liquids and media were sterilized by autoclaving (121° C., 15 min) before use. All aqueous solutions and media were prepared using distilled, deionized, and filtered water (Millipore Milli-Q Advantage A10 Water Purification System). Luria broth (LB) was purchased from VWR. Mueller-Hinton No. 2 broth (MHII broth; cation adjusted) was purchased from Sigma-Aldrich (St. Louis, Mo.). Iron-deficient (—Fe) MHII broth was prepared by adding 0.8 mL of a 1 mg/mL sterile aq. solution of 2,2′-bipyridine to 49.2 mL of MHII broth. Iron-rich (+Fe) MHII broth was prepared by adding 0.8 mL of a 1 mg/mL sterile aq. solution of FeCl3 to 49.2 mL of MHII broth. Mueller-Hinton No. 2 agar (MHII agar; HiMedia Laboratories) was purchased from VWR. Iron-deficient (−Fe) MHII agar was prepared by adding 0.5 mL of a 1 mg/mL sterile aq. solution of 2,2′-bipyridine to 34 mL of melted MHII agar with gentle mixing. Iron-rich (+Fe) MHII agar was prepared by adding 0.5 mL of a 1 mg/mL sterile aq. solution of FeCl3 to 34 mL of melted MHII agar with gentle mixing. See also Wencewicz, T. A. Dissertation, University of Notre Dame, Notre Dame, Ind., 2011, for relevant techniques.
(§3) Determination of MIC90 Values by the Broth Microdilution Assay.
(§4) Antibacterial activity of the compounds was determined by measuring their minimum inhibitory concentrations (MIC90's) using the broth microdilution method according to the Clinical and Laboratory Standards Institute (CLSI, formerly the NCCLS) guidelines. Each well of a 96-well microtiter plate was filled with 50 μL of sterile broth media (−Fe or +Fe). Each test compound was dissolved in DMSO making a 20 mM solution, and then diluted with sterile broth media (−Fe or +Fe) to 400 or 800 μM. Exactly 50 μL of the compound solution was added to the first well of the microtiter plate and 2-fold serial dilutions were made down each row of the plate. Exactly 50 μL of bacterial inoculum (5×10^5 CFU/mL in broth media) was then added to each well giving a total volume of 100 μL/well. The plate was incubated at 37° C. for 20 h and then each well was examined for bacterial growth. The MIC90 was recorded as the lowest compound concentration (μM) required to inhibit 90% of bacterial growth as judged by turbidity of the culture media relative to a row of wells filled with a DMSO standard.

Assay [2] concerns various wild type strains of P. aeruginosa. In words: MIC by broth microdilution (text summary over strains). The assay is classed as cell-based. The following applies: Pseudomonas aeruginosa, iron-deficient medium, read-out: MICs against various wild type strains of P. aeruginosa. On the procedure: as §2
The subject of a further assay is P. aeruginosa KW799/61. In words: MIC90 by broth microdilution assay. Type of assay: cell-based. The following applies: Pseudomonas aeruginosa, KW799/61, 20 h. The method, then:
as §1, §2, §3, §4
Background: Broth dilution looks for growth in wells or tubes with falling amounts of substance.

For assay [3], the system named is P. aeruginosa KW799/wt. In words: MIC90 by broth microdilution assay. The assay is classed as cell-based. The following applies: Pseudomonas aeruginosa, 20 h, 37° C. The method, then:
as §1, §2, §3, §4

The subject of assay [4] is P. aeruginosa Pa4. Kind of assay: MIC90 by broth microdilution assay. The assay is classed as cell-based. The following applies: Pseudomonas aeruginosa, PA4, 20 h, 37° C. The method, then: as §1, §2, §3, §4
In assay [5] the test system is E. coli H1443 (fepA+, cir+, fiu+). Kind of assay: Agar diffusion antibacterial susceptibility assay. Type of assay: cell-based. As to conditions: Escherichia coli, 24 h, 50 μL of 0.2 mM solution, 37° C., read-out: Diameter of growth inhibition zones. On the procedure:
as §2
(§5) Antibacterial Susceptibility Testing by the Agar Diffusion Assay.
(§6) Antibacterial activity of the compounds was determined by a modified Kirby-Bauer agar diffusion assay. Overnight cultures of test organisms were grown in LB broth for 18-24 h and standard suspensions of […] were prepared in saline solution (0.9% NaCl) according to a 0.5 BaSO4 McFarland Standard. This standardized suspension (0.1 mL) was added to 34 mL of sterile, melted agar (−Fe or +Fe) tempered to 47-50° C. After gentle mixing, the inoculated agar media was poured into a sterile plastic petri dish (145 mm×20 mm) and allowed to solidify near a flame with the lid ajar for about 30 min. Wells of 9.0 mm diameter were cut from the petri dish agar and filled with exactly 50 μL of the test sample solution. The petri dish was incubated at 37° C. for 18-24 h and the inhibition zone diameters were measured (mm) with an electronic caliper after 24 h.
(In general: In agar diffusion tests the substance spreads into inoculated agar from a disc or well.)

The test system of assay [6] is P. aeruginosa KW799/wt. Kind of assay: Agar diffusion antibacterial susceptibility assay. The assay is classed as cell-based, Pseudomonas aeruginosa. The following applies: Pseudomonas aeruginosa, KW799/WT, 24 h, 50 μL of 0.2 mM solution, 37° C., read-out: Diameter of growth inhibition zones. On the procedure:
as §2, §5, §6

Assay [7] relates to P. aeruginosa K648 (pvd−, pch−). Kind of assay: Agar diffusion antibacterial susceptibility assay. The assay is classed as cell-based, Pseudomonas aeruginosa. The following applies: for zone of inhibition at 200 µM: Pseudomonas aeruginosa, 24 h, read-out: Diameter of growth inhibition zones, P. aeruginosa K648 (pvd−, pch−), 50 μL of 0.2 mM solution, 37° C., 24 hours. On the procedure: as §2, §5, §6

Assay [8] relates to P. aeruginosa Pa6. Kind of assay: Agar diffusion antibacterial susceptibility assay. Type of assay: cell-based, Pseudomonas aeruginosa. On the procedure: as §2, §5, §6
The subject of assay [9] is E. coli H1876 (fepA−, cir−, fiu−). Kind of assay: Agar diffusion antibacterial susceptibility assay. Type of assay: cell-based, Escherichia coli. The following applies: E. coli H1876 (fepA−, cir−, fiu−); −Fe agar; 50 μL of 0.2 mM solution; 37° C., 24 hours. The method, then:
as §2, §5, §6

In assay [10] the test system is P. aeruginosa Pa4. In words: Agar diffusion antibacterial susceptibility assay. Type of assay: cell-based, Pseudomonas aeruginosa. The following applies: Pseudomonas aeruginosa, PA4, 24 h, 50 μL of 0.2 mM solution, 37° C., read-out: Diameter of growth inhibition zones. The method, then: as §2, §5, §6
Setting [11] is: −Fe (iron-deficient) MHII broth.

Each structure is given as a SMILES string. Values after ≈ are worked out from the molar mass of the structure shown. Like-named read-outs stand apart in the source and are kept apart here.

For the compound `CC(=O)Oc1cccc(C(=O)NCCCC(CCCNC(=O)c2cccc(OC(C)=O)c2OC(C)=O)(CCCNC(=O)c2cccc(OC(C)=O)c2OC(C)=O)NC(=O)CCC(=O)NC(C(=O)NC2C(=O)N3C2SC(C)(C)C3C(=O)O)c2ccc(O)cc2)c1OC(C)=O` (centres unmarked) [Compound 11], the MIC90 against P. aeruginosa Pa6 [1] (setting [11]) is greater than 200 µM; in the assay on P. aeruginosa Pa6 [1] (Pseudomonas aeruginosa, +Fe (iron-rich) MHII broth), greater than 200 µM; in the assay on P. aeruginosa KW799/61 (read-out: MIC (MIC90), P. aeruginosa KW799/61, +Fe (iron-rich) MHII broth, 37° C.) it was 12.5 µM (≈ 16.4 µg/mL); with P. aeruginosa KW799/61 (read-out: MIC (MIC90), P. aeruginosa KW799/61, −Fe (iron-deficient) MHII broth, 37° C.), 0.083 µM (≈ 0.109 µg/mL); with P. aeruginosa KW799/wt [3] (+Fe (iron-rich) MHII broth), 25 µM (≈ 32.8 µg/mL); against P. aeruginosa KW799/wt [3] (setting [11]) it was 0.05 µM (≈ 0.0655 µg/mL). Besides, the MIC90 was 25 µM (≈ 32.8 µg/mL) against P. aeruginosa Pa4 [4] (+Fe (iron-rich) MHII broth) and 0.21 µM (≈ 0.275 µg/mL) in the assay with P. aeruginosa Pa4 [4] (setting [11]). Besides, the “activity against Pa6 (MIC assay, in words)” value in the assay on P. aeruginosa Pa6 [1] (exception among wild type strains) was “inactive”. In addition, the MIC in assay [2] fell in the range of 0.05 to 0.39 µM (≈ 0.0655 to 0.511 µg/mL). Moreover, the zone of inhibition at 200 µM in assay [5] (+Fe agar) was found to be 0 mm; in [5] (−Fe agar) it was 21 mm; with P. aeruginosa KW799/wt [6] (+Fe agar), 25 mm; with P. aeruginosa KW799/wt [6] (−Fe agar), 26 mm; in [7] (+Fe agar), 0 mm; in assay [7] (−Fe agar), 17 mm. For the same compound, the zone of inhibition at 200 µM in the assay on P. aeruginosa Pa6 [8] (Pseudomonas aeruginosa, P. aeruginosa Pa6, +Fe agar, 50 μL of 0.2 mM solution, 37° C., 24 hours, read-out: Diameter of growth inhibition zones) stood at 0 mm; with P. aeruginosa Pa4 [10] (+Fe agar), 0 mm; with P. aeruginosa Pa4 [10] (−Fe agar) it was 20 mm. In assay [7] (iron-rich medium), the “activity against K648 strain (agar diffusion, in words)” value is “inactive”. The “Diameter of growth inhibition zones” value came out at 0 mm in the assay with P. aeruginosa Pa6 [8] (P. aeruginosa Pa6, −Fe agar, 50 μL of 0.2 mM solution, 37° C., 24 hours) and 14p in assay [9]. Also, the “activity against clinical isolate Pa6 (agar diffusion, in words)” value in the assay with P. aeruginosa Pa6 [8] (even under iron-deficient conditions) is on record as “no activity”.

Values taken from patent US9302012B2, “Anti-bacterial siderophore-aminopenicillin conjugates” (University of Notre Dame Du Lac, priority 2012, dated 2016).
